{"source": "patent US12275731B2", "about": "“Azaindole inhibitors of wild-type and mutant forms of LRRK2” (DANA-FARBER CANCER INSTITUTE, INC., priority 2018, dated 2025)", "test_in_all_cases": "KinomeScan profiling", "type_in_all_cases": "binding", "settings_in_all_cases": "1 μM", "key": {"FLT3(ITD)": {"system": "FLT3(ITD)", "outline": "(§1)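 Selectivity was assessed by binding competition at 1 μM against 468 kinases. Values below 35% of control define an interaction.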"}, "FLT3(ITD, D835V)": {"system": "FLT3(ITD, D835V)", "outline": "as §1"}, "FLT3(ITD, F691L)": {"system": "FLT3(ITD, F691L)", "outline": "as §1"}}, "data": [{"smiles": "CNc1c(-c2ccc(C(=O)N3CCC(N4CCOCC4)CC3)cc2)cnc2[nH]cc(Cl)c12", "note": "[Compound 96, (4-(3-chloro-4-(methylamino)-1H-pyrrolo[2,3-b]pyridin-5-yl)phenyl)(4-morpholinopiperidin-1-yl)methanone]", "values": [{"measurement": "% control", "setting": "FLT3(ITD)", "value": 8.1, "unit": "%"}, {"measurement": "% control", "setting": "FLT3(ITD, D835V)", "value": 3.6, "unit": "%"}, {"measurement": "% control", "setting": "FLT3(ITD, F691L)", "value": 0, "unit": "%"}]}, {"smiles": "O=C(c1ccc(-c2cnc3[nH]cc(Cl)c3c2NC2CCCC2)cc1)N1CCC(N2CCOCC2)CC1", "note": "[Compound 101, (4-(3-chloro-4-(cyclopentylamino)-1H-pyrrolo[2,3-b]pyridin-5-yl)phenyl)(4-morpholinopiperidin-1-yl)methanone]", "values": [{"measurement": "% control", "setting": "FLT3(ITD)", "value": 41, "unit": "%"}, {"measurement": "% control", "setting": "FLT3(ITD, D835V)", "value": 55, "unit": "%"}, {"measurement": "% control", "setting": "FLT3(ITD, F691L)", "value": 49, "unit": "%"}]}]}
